Results from paper PMC7354218 (ACS infectious diseases, 2020).
Several values for one entry are separate records, joined by “and”; a condition that tells them apart may be missing. Equal entries are not always repeated. Structures can show the parent of a compound that is named as a salt. Where two headings read alike, the source gives them in different places.

How the values were obtained:
[1] = test system: NpsB; assay type: biochemical, Klebsiella oxytoca; details: pH 8
[2] = test system: NpsA; assay type: biochemical, Klebsiella oxytoca
[3] = molecular target: T1, NpsA (wt-NpsA) (Klebsiella oxytoca, UniProt A0A291NW45); test: biochemical; assay type: binding; details: n = 3
T1 sequence (A0A291NW45 1-506): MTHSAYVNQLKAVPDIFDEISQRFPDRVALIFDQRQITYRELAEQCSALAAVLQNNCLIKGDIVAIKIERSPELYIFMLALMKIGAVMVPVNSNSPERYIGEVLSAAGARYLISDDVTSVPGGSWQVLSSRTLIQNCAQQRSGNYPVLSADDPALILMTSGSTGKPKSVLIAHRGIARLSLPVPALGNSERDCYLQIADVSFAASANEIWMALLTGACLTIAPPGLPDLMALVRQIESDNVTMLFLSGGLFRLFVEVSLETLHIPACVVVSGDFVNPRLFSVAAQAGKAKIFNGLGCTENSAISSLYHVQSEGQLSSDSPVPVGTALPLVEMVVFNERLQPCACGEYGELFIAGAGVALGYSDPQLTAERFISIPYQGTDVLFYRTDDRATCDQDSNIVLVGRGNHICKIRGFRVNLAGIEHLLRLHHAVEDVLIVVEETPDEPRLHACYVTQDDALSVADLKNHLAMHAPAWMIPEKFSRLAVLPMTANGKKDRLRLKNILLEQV
T1 sequence (A0A291NW67 1-76 partner): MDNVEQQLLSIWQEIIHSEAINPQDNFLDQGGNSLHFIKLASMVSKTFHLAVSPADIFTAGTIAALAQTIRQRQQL

[4] = molecular target: T1, NpsA (wt-NpsA); test: biochemical; details: n = 3
[5] = molecular target: NpsA; assay type: biochemical, Klebsiella oxytoca; details: read-out: appKi
[6] = test system: K. oxytoca; assay type: cell-based, Klebsiella oxytoca
[7] = molecular target: NpsA; assay type: binding, Klebsiella oxytoca; details: pH 6.8
[8] = test system: O=C(O)c1cccc(O)c1; test: purified protein, by the assay type; details: pH 8.0
[9] = test system: Nc1c(O)cccc1C(=O)O; test: purified protein, by the assay type; details: pH 8.0
[10] = test system: Nc1ncnc2c1ncn2[C@@H]1O[C@H](COP(=O)(O)OP(=O)(O)OP(=O)(O)O)[C@@H](O)[C@H]1O; test: purified protein, by the assay type; details: pH 8.0
[11] = test system: K. oxytoca strain MIT 10-5243; assay type: cell-based, Klebsiella oxytoca; details: read-out: IC50 for inhibition of tilivalline production

Question: With `O=C(O)[C@@H]1CCCN1` [L-Proline] as the compound, how does the “kcat (apparent)” value [1] read?
Answer: The value was 0.037 ± 0.002 s⁻¹.

Question: What does the source list for `Nc1ccccc1C(=O)O` [Anthranilic acid]?
Answer: Km [2]: 854 µM; fold decrease in specificity constant (kcat/KM) [2]: 52 fold; kcat (apparent) ([2]; pH 8): 0.29 ± 0.01 s⁻¹; Km ([2]; read-out: KM (apparent), pH 8): 850 µM

Question: Which results are given for `Nc1c(O)cccc1C(=O)NS(=O)(=O)NC[C@H]1O[C@@H](n2cnc3c(N)ncnc32)[C@H](O)[C@@H]1O` [compound 5, 3-hydroxyanthraniloyl-AMS; 5′-[N-(2-Amino-3-hydroxybenzoyl)sulfamoyl]amino-5′-deoxyadenosine triethylammonium salt]?
Answer: Kd [3]: 29.3 nM; Ki [4]: 54 nM

Question: Which Ki [5] does the source give for “5′-[N-(2-Amino-3-hydroxybenzoyl)sulfamoyl]amino-5′-deoxyadenosine triethylammonium salt [Compound 5]” here?
Answer: Its Ki is 54 nM.

Question: And the “growth inhibition of K. oxytoca” value [6]?
Answer: The value was “does not inhibit growth”.

Question: And the Kd [7]?
Answer: Its Kd is 29 nM and 29.3 nM.

Question: With NpsA (wt-NpsA) (Klebsiella oxytoca) as the compound, how does the Km [8] read?
Answer: The Km was “(4.0 ± 0.9) × 10^3 uM”.

Question: And the kcat [8]?
Answer: The kcat was 0.35 ± 0.07 s⁻¹.

Question: What about the kcat/Km [8] of the same compound?
Answer: The kcat/Km was 88 ± 26 M⁻¹ s⁻¹.

Question: What about the Km [9] of the same compound?
Answer: The Km was “(6.3 ± 0.2) × 10^1 uM”.

Question: What about the kcat [9] of the same compound?
Answer: The kcat was 0.78 ± 0.01 s⁻¹.

Question: What about the kcat/Km [9] of the same compound?
Answer: Its kcat/Km is 18000 ± 1000 M⁻¹ s⁻¹.

Question: What about the Km [10] of the same compound?
Answer: Its Km is “(1.5 ± 0.1) × 10^1 uM”.

Question: What about the kcat [10] of the same compound?
Answer: Its kcat is 0.82 ± 0.01 s⁻¹.

Question: And the kcat/Km [10]?
Answer: Its kcat/Km is 56000 ± 4000 M⁻¹ s⁻¹.

Question: How did the “kcat (apparent)” value [1] turn out when `Nc1ncnc2c1ncn2[C@@H]1O[C@H](COP(=O)(O)OP(=O)(O)OP(=O)(O)O)[C@@H](O)[C@H]1O` [ATP, adenosine triphosphate] was run?
Answer: Its value is 0.056 ± 0.002 s⁻¹.

Question: And the Km ([1]; read-out: KM (apparent))?
Answer: The Km was 21 µM.

Question: And the “kcat (apparent)” value ([2]; pH 8)?
Answer: The value was 0.82 ± 0.01 s⁻¹.

Question: What about the Km ([2]; read-out: KM (apparent), pH 8) of the same compound?
Answer: Its Km is 15 µM.

Question: Which “fold decrease in specificity constant (kcat/KM)” value [2] does the source give for `O=C(O)c1cccc(O)c1` [3-Hydroxybenzoic acid] here?
Answer: The value was 200 fold.

Question: What about the “kcat (apparent)” value ([2]; pH 8) of the same compound?
Answer: The value was 0.35 ± 0.07 s⁻¹.

Question: And the Km ([2]; read-out: KM (apparent), pH 8)?
Answer: The Km was 4000 µM.

Question: What does the source list for `Nc1ncnc2c1ncn2[C@@H]1O[C@H](CNS(=O)(=O)NC(=O)c2cccc(O)c2)[C@@H](O)[C@H]1O` [compound 8, 3-hydroxybenzoyl-AMS; 5′-[N-(3-Hydroxybenzoyl)sulfamoyl]amino-5′-deoxyadenosine triethylammonium salt]?
Answer: Kd [3]: 112 nM; Ki [4]: 230 nM

Question: What does the source list for `Nc1ccccc1C(=O)NS(=O)(=O)NC[C@H]1O[C@@H](n2cnc3c(N)ncnc32)[C@H](O)[C@@H]1O` [compound 9, anthraniloyl-AMS; 5′-[N-(2-Aminobenzoyl)sulfamoyl]amino-5′-deoxyadenosine triethylammonium salt]?
Answer: Kd [3]: 485 nM; Ki [4]: 1200 nM

Question: How did the Ki [5] turn out when “5′-[N-(3-Hydroxybenzoyl)sulfamoyl]amino-5′-deoxyadenosine triethylammonium salt [Compound 8]” was run?
Answer: The Ki was 230 nM.

Question: What about the “growth inhibition of K. oxytoca” value [6] of the same compound?
Answer: The value was “no observable growth inhibition”.

Question: What about the Kd [7] of the same compound?
Answer: Its Kd is 112 nM.

Question: And the IC50 [11]?
Answer: The IC50 was 29000 nM.

Question: With “5′-[N-(2-Aminobenzoyl)sulfamoyl]amino-5′-deoxyadenosine triethylammonium salt [Compound 9]” as the compound, how does the Ki [5] read?
Answer: The Ki was 1200 nM.

Question: What about the Kd [7] of the same compound?
Answer: Its Kd is 485 nM.

Question: `Nc1c(O)cccc1C(=O)O` [3-Hydroxyanthranilic acid] was tested. Which “kcat (apparent)” value ([2]; pH 8) did it give?
Answer: The value was 0.78 ± 0.01 s⁻¹.

Question: And the Km ([2]; read-out: KM (apparent), pH 8)?
Answer: Its Km is 63 µM.
